Bounds are passed on as bounds.

Series [1] can be described thus: Directional release from hydrogel coated with PCL on one side, in 3% alginate gel. The series is classed as physicochemical. On the procedure:
Release of methylene blue from the hydrogel was simulated in a 3% alginate gel, cross-linked with calcium chloride to obtain a tissue-like consistency. Only the top part of the hydrogel was coated with PCL. The samples were inspected at 0, 1, 2, and 3 hours. Hydrogels were positioned vertically to eliminate any effect of gravity on the direction of release. […] The same experiment was performed with bupivacaine.

The conditions of series [2]: local anaesthetic; cited from earlier work.

Take `CCCCN1CCCCC1C(=O)Nc1c(C)cccc1C` (stereo not drawn) [bupivacaine]: the cumulative release entry in series [1] (from the PCL-covered direction, after 8 hours) is “about 2 mg”. The “time to reach cumulative release of about 2 mg” value in series [1] (non-PCL covered direction) is ≤ 1 h. Further, the “duration of its effect” value in series [2] is listed as “approx. 8 hours”.
